Data on 42 molecules can be found in patent US7767665B2, “1,3-benzothiazinone derivatives and use thereof” (Takeda Pharmaceutical Company Limited, priority 2001, dated 2010).

Each structure is given as a SMILES string.

As a reminder, the melting point is the temperature, or range, at which the solid turns liquid.

In the case of `CC(C)(C)OC(=O)CCc1cccc(-c2nc(=O)c3ccc(F)cc3s2)n1` [Example 181, tert-Butyl 3-[6-(7-fluoro-4-oxo-4H-1,3-benzothiazin-2-yl)-2-pyridyl]propanoate], the melting point lay in the range of 158.5 to 159.5 °C.
The figure for `O=C(O)CCc1cccc(-c2nc(=O)c3ccc(F)cc3s2)n1` [Example 182, 3-[6-(7-Fluoro-4-oxo-4H-1,3-benzothiazin-2-yl)-2-pyridyl]propionic acid] is 215 to 217 °C; for `CC(C)(C)OC(=O)CCc1ccnc(-c2nc(=O)c3ccc(Cl)cc3s2)c1` [Example 183, tert-Butyl 3-[2-(7-chloro-4-oxo-4H-1,3-benzothiazin-2-yl)-4-pyridyl]propanoate] it is 151.8 to 152.1 °C; for `CC(C)(C)OC(=O)CCc1ccnc(-c2nc(=O)c3ccc(F)cc3s2)c1` [Example 184, tert-Butyl 3-[2-(7-fluoro-4-oxo-4H-1,3-benzothiazin-2-yl)-4-pyridyl]propanoate] it is 137.6 to 138.1 °C.
`O=C(O)CCc1ccnc(-c2nc(=O)c3ccc(Cl)cc3s2)c1` [Example 185, 3-[2-(7-Chloro-4-oxo-4H-1,3-benzothiazin-2-yl)-4-pyridyl]propionic acid] registered a melting point of 262.9 to 263.5 °C.
With `O=C(O)CCc1ccnc(-c2nc(=O)c3ccc(F)cc3s2)c1` [Example 186, 3-[2-(7-Fluoro-4-oxo-4H-1,3-benzothiazin-2-yl)-4-pyridyl]propionic acid] the figure was 240 °C (dec.).
In turn, `CC(C)(C)OC(=O)CCc1ccnc(-c2nc(=O)c3ccc(Br)cc3s2)c1` [Example 187, tert-Butyl 3-[2-(7-bromo-4-oxo-4H-1,3-benzothiazin-2-yl)-4-pyridyl]propanoate] had a melting point of 172.9 to 173.7 °C.
The figure for `O=C(O)CCc1ccnc(-c2nc(=O)c3ccc(Br)cc3s2)c1` [Example 188, 3-[2-(7-Bromo-4-oxo-4H-1,3-benzothiazin-2-yl)-4-pyridyl]propionic acid] is 257.5 to 259.1 °C; for `Cc1cc(CCC(=O)OC(C)(C)C)nc(-c2nc(=O)c3ccccc3s2)c1` [Example 189, tert-Butyl 3-[4-methyl-6-(4-oxo-4H-1,3-benzothiazin-2-yl)-2-pyridyl]propanoate] it is 168.5 to 169.3 °C; for `Cc1cc(CCC(=O)OC(C)(C)C)nc(-c2nc(=O)c3ccc(Cl)cc3s2)c1` [Example 190, tert-Butyl 3-[6-(7-chloro-4-oxo-4H-1,3-benzothiazin-2-yl)-4-methyl-2-pyridyl]propanoate] it is 162.3 to 163 °C.
Take `Cc1cc(CCC(=O)O)nc(-c2nc(=O)c3ccccc3s2)c1` [Example 191, 3-[4-Methyl-6-(4-oxo-4H-1,3-benzothiazin-2-yl)-2-pyridyl]propionic acid]: the melting point fell in the range of 244.6 to 245.5 °C.
With `Cc1cc(CCC(=O)O)nc(-c2nc(=O)c3ccc(Cl)cc3s2)c1` [Example 192, 3-[6-(7-Chloro-4-oxo-4H-1,3-benzothiazin-2-yl)-4-methyl-2-pyridyl]propionic acid] the figure was 232.2 to 233.2 °C.
Turning to `O=c1nc(-c2cccc(-c3cccs3)n2)sc2ccccc12` [Example 193, 2-[6-(2-Thienyl)-2-pyridyl]-4H-1,3-benzothiazin-4-one], the melting point was 222.2 to 223.4 °C.
With `O=c1nc(-c2cccc(-c3ccco3)n2)sc2ccccc12` [Example 194, 2-[6-(2-Furyl)-2-pyridyl]-4H-1,3-benzothiazine-4-one] the figure was 217.9 to 218.4 °C; with `O=c1nc(-c2cccc(-c3cnco3)n2)sc2ccccc12` [Example 195], 271.3 to 272.7 °C; with `O=c1nc(-c2cccc(-n3cccn3)n2)sc2ccccc12` [Example 196, 2-[6-(1H-Pyrazol-1-yl)-2-pyridyl]-4H-1,3-benzothiazine-4-one], 253 to 254 °C.
The molecule `O=c1nc(-c2cccc(-c3ccccc3)n2)sc2ccccc12` [Example 197, 2-(6-Phenyl-2-pyridyl)-4H-1,3-benzothiazine-4-one] had a melting point of 195.4 to 197 °C.
With `COc1ccc(-c2cccc(-c3nc(=O)c4ccccc4s3)n2)cc1` [Example 198, 2-[6-(4-Methoxyphenyl)-2-pyridyl]-4H-1,3-benzothiazine-4-one] the figure was 200.1 to 201.1 °C; with `O=c1nc(-c2cccc(-c3ccccn3)n2)sc2ccccc12` [Example 199, 2-[6-(2,2′-Bipyridyl)]-4H-1,3-benzothiazine-4-one], 222.1 to 223.9 °C.
With `Cc1ccnc(-c2cc(C)cc(-c3nc(=O)c4ccccc4s3)n2)c1` [Example 200, 2-[6-(4,4′-Dimethyl-2,2′-bipyridyl)]-4H-1,3-benzothiazine-4-one] the figure was 234.9 to 235.2 °C.
In turn, `O=C(NCCO)c1cccc(-c2nc(=O)c3ccccc3s2)n1` [Example 201, N-(2-Hydroxyethyl)-6-(4-oxo-4H-1,3-benzothiazin-2-yl)-2-pyridinecarboxamide] showed a melting point of 213.8 to 215.2 °C.
Take `CC(C)(C)OC(=O)NCc1cccc(-c2nc(=O)c3ccccc3s2)n1` [Example 202, tert-Butyl [6-(4-Oxo-4H-1,3-benzothiazin-2-yl)-2-pyridyl]methylcarbamate]: the melting point fell in the range of 160 to 162.1 °C.
For `CC(=O)NCc1cccc(-c2nc(=O)c3ccccc3s2)n1` [Example 204, N-[[6-(4-Oxo-4H-1,3-benzothiazin-2-yl)-2-pyridyl]methyl]ace tamide], the melting point was in the range of 199.2 to 200.4 °C.
With `CCC(=O)NCc1cccc(-c2nc(=O)c3ccccc3s2)n1` [Example 205, N-[[6-(4-Oxo-4H-1,3-benzothiazin-2-yl)-2-pyridyl]methyl]propanamide], the melting point lay within 199 to 199.8 °C.
For `CC(C)C(=O)NCc1cccc(-c2nc(=O)c3ccccc3s2)n1` [Example 206, 2-Methyl-N-[[6-(4-oxo-4H-1,3-benzothiazin-2-yl)-2-pyridyl]methyl]propanamide], the melting point was 188.6 to 189.2 °C.
With `O=C(NCc1cccc(-c2nc(=O)c3ccccc3s2)n1)c1ccccc1` [Example 207, N-[[6-(4-Oxo-4H-1,3-benzothiazin-2-yl)-2-pyridyl]methyl]benzamide] the figure was 213.9 to 214.7 °C.
With `O=C(NCc1cccc(-c2nc(=O)c3ccccc3s2)n1)c1cccs1` [Example 208, N-[[6-(4-Oxo-4H-1,3-benzothiazin-2-yl)-2-pyridyl]methyl]-2-thiophenecarboxamide] the figure was 208.5 to 209 °C; with `O=C(NCc1cccc(-c2nc(=O)c3ccccc3s2)n1)C(F)(F)F` [Example 209, 2,2,2-Trifluoro-N-[[6-(4-oxo-4H-1,3-benzothiazin-2-yl)-2-pyridyl]methyl]acetamide], 226.4 to 227.4 °C.
`CSCCC(=O)NCc1cccc(-c2nc(=O)c3ccccc3s2)n1` [Example 210, 3-(Methylthio)-N-[[6-(4-oxo-4H-1,3-benzothiazin-2-yl)-2-pyridyl]methyl]propanamide]: the melting point fell in the range of 191.6 to 192.8 °C.
Molecule `CS(=O)(=O)NCc1cccc(-c2nc(=O)c3ccccc3s2)n1` [Example 211, N-[[6-(4-Oxo-4H-1,3-benzothiazin-2-yl)-2-pyridyl]methyl]methanesulfonamide] came in with a melting point of 188.1 to 189.5 °C.
`CCS(=O)(=O)NCc1cccc(-c2nc(=O)c3ccccc3s2)n1` [Example 212, N-[[6-(4-Oxo-4H-1,3-benzothiazin-2-yl)-2-pyridyl]methyl]ethanesulfonamide]: the melting point is 170 to 171 °C.
The figure for `O=c1nc(-c2cccc(CNS(=O)(=O)c3ccccc3)n2)sc2ccccc12` [Example 213, N-[[6-(4-Oxo-4H-1,3-benzothiazin-2-yl)-2-pyridyl]methyl]benzenesulfonamide] is 206.7 to 207.5 °C.
Regarding `CN(C)C(=O)NCc1cccc(-c2nc(=O)c3ccccc3s2)n1` [Example 216, N,N-Dimethyl-N′-[[6-(4-oxo-4H-1,3-benzothiazin-2-yl)-2-pyridyl]methyl]urea], the melting point was 175.2 to 176.3 °C.
The figure for `CC(C)(C)OC(=O)NCCc1cccc(-c2nc(=O)c3ccccc3s2)n1` [Example 217, tert-Butyl 2-[6-(4-oxo-4H-1,3-benzothiazin-2-yl)-2-pyridyl]ethylcarbamate] is 170.2 to 170.8 °C; for `CC(C)(C)OC(=O)NCCc1ccnc(-c2nc(=O)c3ccccc3s2)c1` [Example 218, tert-Butyl 2-[2-(4-oxo-4H-1,3-benzothiazin-2-yl)-4-pyridyl]ethylcarbamate] it is 159.8 to 161 °C; for `CC(C)(C)OC(=O)NCCc1ccnc(-c2nc(=O)c3ccc(Cl)cc3s2)c1` [Example 219, tert-Butyl 2-[2-(7-chloro-4-oxo-4H-1,3-benzothiazin-2-yl)-4-pyridyl]ethylcarbamate] it is 168.2 to 169.2 °C.
In turn, `O=C(NCCc1cccc(-c2nc(=O)c3ccccc3s2)n1)c1ccccc1` [Example 224, N-[2-[6-(4-Oxo-4H-1,3-benzothiazin-2-yl)-2-pyridyl]ethyl]benzamide] had a melting point of 201.7 to 202.6 °C.
In the case of `O=C(NCCc1ccnc(-c2nc(=O)c3ccccc3s2)c1)c1ccccc1` [Example 225, N-[2-[2-(4-Oxo-4H-1,3-benzothiazin-2-yl)-4-pyridyl]ethyl]benzamide], the melting point was in the range of 216.8 to 219.3 °C.
Regarding `CC(=O)NCCc1cccc(-c2nc(=O)c3ccccc3s2)n1` [Example 226, N-[2-[6-(4-Oxo-4H-1,3-benzothiazin-2-yl)-2-pyrizyl]ethyl]acetamide], the melting point was in the range of 206.7 to 207.9 °C.
Regarding `O=C(NCCc1cccc(-c2nc(=O)c3ccccc3s2)n1)Nc1ccccc1` [Example 227, N-[2-[6-(4-Oxo-4H-1,3-benzothiazin-2-yl)-2-pyridyl]ethyl]-N′-phenylurea], the melting point was in the range of 234.8 to 236.4 °C.
`CCNC(=O)NCCc1cccc(-c2nc(=O)c3ccccc3s2)n1` [Example 228, N-Ethyl-N′-[2-[6-(4-oxo-4H-1,3-benzothiazin-2-yl)-2-pyridyl]ethyl]urea]: the melting point is 240.3 to 242.4 °C.
In the case of `CN(C)C(=O)NCCc1cccc(-c2nc(=O)c3ccccc3s2)n1` [Example 229, N,N-Dimethyl-N′-[2-[6-(4-oxo-4H-1,3-benzothiazin-2-yl)-2-pyridyl]ethyl]urea], the melting point was 190.2 to 191 °C.
